Source: patent US20220142948A1, “COMPOSITIONS AND METHODS FOR MODULATING METABOLIC REGULATORS OF T CELL PATHOGENICITY” (The Broad Institute, Inc., priority 2019, published 2022)
“Also recorded” adds a separate entry of the source.

Assays:
[1] = test system: Th17n, Th17p and iTreg cells; assay: Population ATAC-seq chromatin accessibility; assay type: cell-based, mouse
Description: ATAC-seq. For population ATAC-seq, in vitro differentiated T-cells were sorted for live cells and froze down in Bambanker freezing media (Thermo Fisher Scientific).
Alignment of ATAC-Seq and Peak Calling. All ATAC-Seq reads were trimmed using Trimmomatic to remove primer and low-quality bases. Reads <36 bp were dropped. Reads were then passed to FastQC [www.bioinformatics.babraham.ac.uk/projects/fastqc/] to check the quality of the trimmed reads. The paired-end reads were then aligned to the mm10 reference genome using bowtie2 [29], allowing maximum insert sizes of 2000 bp, with the “—no-mixed” and “—no-discordant” parameters added. Reads with a mapping quality (MAPA) below 30 were removed. Duplicates were removed with PicardTools, and the reads mapping to the blacklist regions and mitochondrial DNA were also removed. Reads mapping to the positive strand were moved +4 bp, and reads mapping to the negative strand were moved −5 bp following the procedure outlined in [30] to account for the binding of the Tn5 transposase.
(§1) Peaks were called using macs2 on the aligned fragments with a qvalue cutoff of 0.001 and overlapping peaks among replicates were merged.
Tests of Differential Accessibility in ChARs. Differential accessibility was assessed using DESeq2 [32] on with a matrix of peaks by samples replacing the genes by samples matrix. Counts of Tn5 cuts were used instead of gene expression values.
ATAC-seq. For population ATAC-seq, in vitro differentiated T-cells were sorted for live cells and stored in Bambanker freezing media (Thermo Fisher Scientific) at −80° C. until further processing. Prior to library preparation, cells were thawed at 37° C. and washed with PBS. For ATAC-seq, cell pellets were lysed and tagmented in 1×TD Buffer, 0.2 ul TDE1 (Illumina), 0.01% digitonin, and 0.3×PBS in 40 ul reaction volume following the protocol described in [49]. Transposition reactions were incubated at 37° C. for 30 min at 300 rpm. The DNA was purified from the reaction using a MinElute PCR purification kit (QIAGEN). The whole resulting product was then PCR-amplified using indexed primers with NEBNext High-Fidelity 2X PCR Master Mix (NEB). First, Applicants performed 5 cycles of pre-amplification. Applicants sampled 10% of the pre-amplification reaction for SYBR Green quantitative PCR to assess the number of additional cycles needed for final amplification. After purifying the final library with the MinElute PCR purification kit (QIAGEN), the library was quantified for sequencing using qPCR and a Qubit dsDNA HS Assay kit (Invitrogen). Libraries were sequenced on an Illumina NextSeq 550 system with paired-end reads of 37 base pairs in length.
Alignment of ATAC-Seq and Peak Calling. All ATAC-Seq reads were trimmed using Trimmomatic to remove primer and low-quality bases. Reads <36 bp were dropped. Reads were then passed to FastQC [www.bioinformatics.babraham.ac.uk/projects/fastqc/] to check the quality of the trimmed reads. The paired-end reads were then aligned to the mm10 reference genome using bowtie2 [51], allowing maximum insert sizes of 2000 bp, with the “—no-mixed” and “—no-discordant” parameters added. Reads with a mapping quality (MAPA) below 30 were removed. Duplicates were removed with PicardTools, and the reads mapping to the blacklist regions and mitochondrial DNA were also removed. Reads mapping to the positive strand were moved +4 bp, and reads mapping to the negative strand were moved −5 bp following the procedure outlined in [52] to account for the binding of the Tn5 transposase.
as §1
Tests of Differential Accessibility. Differential accessibility was assessed using DESeq2 [54] on with a matrix of peaks (merging all samples) by samples. […]

[2] = test system: Th17 cells (Th17n, Th17p); assay: Protein, phospho-protein and histone mark analysis by flow cytometry; assay type: cell-based, mouse
Description: Proliferation was assessed by staining with CellTrace Violet (Thermo Fisher Scientific) per manufacturer's instructions. Apoptosis was assessed using Annexin V staining kit (BioLegend). Phosphorylation of proteins to determine cell signaling was performed with BD Phosflow buffer system (BD bioscience) as per manufacturer's instructions.
T cell differentiation culture and flow cytometry. Naïve CD4+CD44-CD62L+CD25− T cells were sorted using BD FACSAria sorter and activated with plate-bound anti-CD3 (1 μg/ml) and antiCD28 antibodies (1 μg/ml) in the presence of cytokines at a concentration of 5×10^5 cells/ml. For T cell differentiations the following combinations of cytokines were used: pathogenic Th17: 25 ng/ml rmIL-6, 20 ng/ml rmIL-1b (both Miltenyi Biotec) and 20 ng/ml rmIL-23 (R&D systems); non-pathogenic Th17: 25 ng/ml rmIL-6 and 2 ng/ml of rhTGFb1 (Miltenyi Biotec); iTreg: 2 ng/ml of rhTGFb1; Th1: 20 ng/ml rmIL-12 (R&D systems); Th2: 20 ng/ml rmIL-4 (Miltenyi Biotec). Intracellular cytokine staining was performed after incubation for 4-6h with Cell Stimulation cocktail plus Golgi transport inhibitors (Thermo Fisher Scientific) using the BD Cytofix/Cytoperm buffer set (BD Biosciences) per manufacturer's instructions. Transcription factor staining was performed using the Foxp3/Transcription Factor Staining Buffer Set (eBioscience). Proliferation was assessed by staining with CellTrace Violet (Thermo Fisher Scientific) per manufacturer's instructions. Apoptosis was assessed using Annexin V staining kit (BioLegend). Phosphorylation of proteins to determine cell signaling was performed with BD Phosflow buffer system (BD bioscience) as per manufacturer's instructions.

[3] = test system: experimental autoimmune encephalomyelitis (EAE); assay: Adoptive transfer EAE with 2D2 TCR-transgenic Th17 cells differentiated in the presence of inhibitor; assay type: in vivo, mouse
Description: For adoptive transfer EAE, naïve 2D2 transgenic T cells were sorted and differentiated into Th17n cells+/−EGCG or Th17p+/−DHEA as described for three days followed by a resting phase in the presence of IL-23 alone for 2 days. Cells were then harvested and restimulated with plate-bound anti-CD3 and anti-CD28 for 2 days prior to transfer. 2-8 million cells were transferred per mouse intravenously.
For adoptive transfer EAE, naive T cells (CD4+CD44-CD62L+CD25-) were isolated from 2D2 TCR-transgenic mice and activated with anti-CD3 ([…]) and anti-CD28 ([…]) in the presence of differentiation cytokines for 68h. Cells were rested for 2 days and restimulated with plate-bound anti-CD3 (0.5 mg/ml for pathogenic condition; […] for non-pathogenic condition) and anti-CD28 ([…]) for 2 days prior to transfer. Equal number (2 to 8 million) cells were transferred per mouse intravenously.

In the case of `NCCC[C@](N)(C(=O)O)C(F)F` [DFMO, 2-(difluoromethyl)ornithine], the “ATACseq peaks in the Il23r region” value [1] is reported as “no significant difference”, the “accessibility in Th17 specific regions” value [1] is reported as “specifically reduced accessibility; also recorded: reduces accessibility; also recorded: more restricted landscape; also recorded: less accessibility” and the “accessibility in Treg specific regions” value [1] is reported as “more accessible landscape; also recorded: more accessibility”. For the same molecule, the “peaks near regulatory elements for Foxp3 such as CNS2” value [1] was “no differentially expressed peaks”, the “peaks in the promoter and intergenic regions of Il17a-Il17f” value ([1]; Rorgt binding site) was “significantly restricted peaks” and the “accessibility near potential binding sites of JMJD3 and POU-domain TFs” value ([1]; Th17n cells) was “increased accessibility”. For the same molecule, the accessible peaks overall ([1]; Th cells analyzed) was “alters chromatin accessibility; also recorded: significant changes in accessible peaks; also recorded: considerable changes in accessible peaks”, the “motif enrichment in iTreg-specific accessible regions” value ([1]; both Th17n and Th17p cells) was “significant enrichment of BATF and cMAF motifs” and the “total Stat3 protein levels” value [2] was “not total Stat3 protein levels”. For the same molecule, the H3K4 trimethylation ([2]; Th17 cells) was “promoted”, the H3K9 trimethylation ([2]; Th17 cells) was “promoted” and the H3K27 trimethylation ([2]; Th17 cells) was “promoted”. The pStat3 ([2]; Th17 cells) was “does not seem to alter; also recorded: did not alter; also recorded: inconsistently regulated”, the pStat3 ([2]; Th17p cells) was “decreased” and the “pFoxo1(S256)” value ([2]; both types of Th17 cells) was “promoted”.

For epigallocatechin-3-gallate [EGCG], the “optic neuritis/perineuritis in host mice” value ([3]; EGCG on Th17n, DHEA on Th17p) was “promoted”, the EAE severity ([3]; Th17n cells with IL-23 in differentiation culture, vs IL-23+solvent) was “significantly more severe EAE” and the “number of CNS lesions (meninges and parenchyma)” value ([3]; Th17n transfer) was “increased number of CNS lesions”. The “Wallerian degeneration in proximal spinal nerve roots” value ([3]; mouse, in vivo) was “only experimental group to produce Wallerian degeneration; also recorded: induce Wallerian degeneration; also recorded: greater”, the EAE incidence rate ([3]; recipients of EGCG-treated Th17n cells, control group 0/12) was 10/12 and the meningeal inflammation ([3]; vs. Control mice) was “greater meningeal inflammation”.
